Test results reported in US20080305189A1, “TREATMENT OF ASPIRIN RESISTANCE WITH RADIX SALVIAE MILTIORRHIZAE, ITS EXTRACT AND COMPOSITION” (Tianjin Tasly Pharmaceutical Co., Ltd., priority 2003, published 2008).

Assays:
[1] = system: urinary 11-dehydrothromboxane B2 (TXB2); assay: Test Example 2: urinary 11-dehydrothromboxane B2 by immunoenzyme assay, CDDP study; type: in vivo, human; conditions: group mean, n = 50; drugs for at least half a year
From the text: This study adopted a reviewing method, and the normal value referred to the research results about aspirin resistance in Australia.
All 178 patients, including 140 males and 38 females, came from the retired personnel of the First Sanatorium, Bafenbu Sanatorium. The patients were aged 70˜87 and the average age was 77.1. 170 patients were randomly selected for sample test and the number of patients whose data could be accepted was 150 (IC20˜IC80). Of those enrolled in the study, in addition to aspirin resistance, 91 patients were afflicted with hypertension, 25 patients were afflicted with hyperlipidemia, 32 patients were afflicted with diabetes, 139 patients were afflicted with coronary heart disease, and 57 patients were afflicted with cerebrovascular diseases. […] All the patients administered drugs for at least half a year before sampling.
The urinary sample was the middle section of the first urina of the day. The urinary sample was placed in the liquid nitrogen immediately after sampling and stored at −86[…] in a low-temperature refrigerator. The urinary 11-dehydrothromboxane B2 (TXB2) was determined by immunoenzyme assay using the reagent kit of Cayman Chemical company. All the experiments were completed in the Biological Institute of Tasly Research Academy. Information about patient grouping was double-blind for researchers and statisticians. […]

[2] = system: urinary 11-dehydrothromboxane B2 (TXB2); assay: Test Example 3: urinary 11-dehydrothromboxane B2 by immunoenzyme assay, Compound Danshen Tablets study; type: in vivo, human; conditions: group mean, n = 50; cardiovascular outpatients with tendency of aspirin resistance; drugs for at least half a year
From the text: 150 patients in this study were all selected from the cardiovascular outpatients having the tendency of aspirin resistance. All the patients, including 80 males and 70 females, aged between 70˜85, with the average age of 77. To treat aspirin resistance, 50 patients administered aspirin (aspirin group), 50 patients administered Compound Danshen Tablets (CDT group), and 50 patients administered aspirin and CDT simultaneously (combination therapy group). All the patients administered drugs for at least half a year before sampling.
The urinary sample was the middle section of the first urina of the day. The urinary sample was placed in the liquid nitrogen immediately after sampling and stored at −86□ in a low-temperature refrigerator. The urinary 11-dehydrothromboxane B2 (TXB2) was determined by immunoenzyme assay using the reagent kit of Cayman Chemical company. […] Information about patient grouping was double-blind for researchers and statisticians.

Q: Which “Urinary 11-dehydro TXB2, X ± SD” value [1] does the source give for CC(=O)Oc1ccccc1C(=O)O [Aspirin, aspirin] here?
A: 25.02 ± 10.51 ng/mmol

Q: What about the “Urinary 11-dehydro TXB2, X ± SD” value [2] of the same molecule?
A: 25.05 ± 10.42 ng/mmol
